# Assay results taken from patent US20260250639A1, “REPROGRAMMING METHOD” (Babraham Institute, priority 2022, published 2026).
# Legend:
# NSO4G neural stem cells = test: Yamanaka factor-mediated reprogramming of NSO4G neural stem cells to iPSCs, flow cytometry of OCT4-GFP positive cells; format: cell-based, mouse; conditions: NSC reprogramming culture, end of reprogramming (day 15)
# From the text: FIG. 1: Schematic of method of reprogramming of mouse neural stem cells into induced pluripotent stem (iPS) cells. The mouse neural stem cell (NSC) line NSO4G harbours the GFP transgene under the control of Oct4 regulatory elements. […] Upon reprogramming, iPSCs grow in colonies and express GFP, allowing their visualisation and isolation from the remaining, non-reprogrammed cells.
# A-C) Yamanaka factor-mediated reprogramming of NSO4G neural stem cells. D) Yamanaka factor-mediated reprogramming of human fibroblasts. A) Schematic representation of the experimental design for data in panels B and C. B) Flow cytometry plots (left) and quantification data (right) for the number of GFP-positive cells at the end of reprogramming, in the presence of PADI4 or control shRNAs. C) Flow cytometry plots (left) and quantification data (right) for the number of GFP-positive cells at the end of reprogramming, in the presence of CI-amidine or vehicle control. D) Quantification of iPS colonies, as a measure of the degree of reprogramming, after Yamanaka factor-mediated reprogramming of human fibroblasts, in the presence of two independent PADI4 inhibitors (CI-amidine or GSK484) or vehicle controls. […]
# To investigate the timing of PADI4 expression during reprogramming, the method of reprogramming neural stem cells (NSCs) to iPSCs described in Theunissen et al. (2011) Current Biology, 21(1): 65-71 (doi: https://doi.org/10.1016/j.cub.2010.11.074) was used (FIG. 1). […] At various reprogramming timepoints, the reprogramming cells were harvested and the levels of mRNA encoding PADI4 and NANOG were quantified by qPCR (FIG. 2A) and protein levels (FIG. 2B). […]
# Medium was conditioned by culture on NSC reprogramming cultures (FIG. 5A, “Conditioned medium”, bottom panel) or by incubated in empty plates lacking cells under the same conditions (FIG. 5A, “Control medium”, top panel) and added to new reprogramming (receiving) cultures after every 24 h. Reprogramming efficiency of the receiving cultures was assessed by flow cytometry based GFP quantification at the end of the reprogramming assay (day 15). […]
# human fibroblasts = test: Yamanaka factor-mediated reprogramming of human fibroblasts, iPS colony count; format: cell-based; conditions: human fibroblast reprogramming culture without OCT4-GFP reporter, vs vehicle control
# From the text: A-C) Yamanaka factor-mediated reprogramming of NSO4G neural stem cells. D) Yamanaka factor-mediated reprogramming of human fibroblasts. A) Schematic representation of the experimental design for data in panels B and C. B) Flow cytometry plots (left) and quantification data (right) for the number of GFP-positive cells at the end of reprogramming, in the presence of PADI4 or control shRNAs. C) Flow cytometry plots (left) and quantification data (right) for the number of GFP-positive cells at the end of reprogramming, in the presence of CI-amidine or vehicle control. D) Quantification of iPS colonies, as a measure of the degree of reprogramming, after Yamanaka factor-mediated reprogramming of human fibroblasts, in the presence of two independent PADI4 inhibitors (CI-amidine or GSK484) or vehicle controls. The inhibitors were administered throughout the course of reprogramming.
# FIG. 10: Inhibition of extracellular chromatin component-sensing pathways inhibits reprogramming. A) Schematic representation of the extra-nuclear DNA sensing pathway cGAS/STING (left panel). Flow cytometry-based quantification of GFP-positive cells at the end of NSC reprogramming (day 15), in the presence of STING inhibitor H-151, vehicle control (DMSO) or no treatment (right panel). B) Schematic representation of the signalling pathway downstream of the Damage Associated Molecular Pattern (DAMP)-sensing Toll-Like Receptor 2 (TLR2; left panel). Flow cytometry-based quantification of GFP-positive cells at the end of NSC reprogramming (day 15), in the presence of TLR2 inhibitor MMG-11, vehicle control (DMSO) or no treatment (right panel). C) Colony count data for quantification of reprogramming of human fibroblast cells at the end of reprogramming (day 40) after treatment with STING inhibitor H-151 (left panel), TLR2 inhibitor MMG-11 (right panel) or vehicle control (DMSO).
# [1] = test system: citrullinated histone H3 (H3Cit), product of PADI4 activity; test: Western blot for citrullinated histone H3 in conditioned medium of NSC reprogramming cultures; format: cell-based, mouse; conditions: conditioned medium from reprogramming cultures, similar total histone H3
# From the text: FIG. 7: Citrullinated histones are found in culture medium conditioned by reprogramming cultures. Immunoblot analysis for total histone H3 (top) and two different citrullination marks on histone H3 (middle and bottom) on conditioned medium of NSC reprogramming cells cultured in the presence or absence or the PADI4 inhibitor CI-amidine. Data from two independent experiments are shown. Citrullinated histone H3 is readily detected in the conditioned medium and inhibited by CI-amidine.
# Based on this finding, the conditioned medium of Example 4 was analysed for the presence of H3Cit by Western blot (FIG. 7). Citrullinated histone H3 (H3Cit) can be readily detected in the conditioned medium from reprogramming cultures (FIG. 7, middle and lower panels labelled “H3CitR2” and H3CitR8”, lanes labelled “-CI-am”), and this is reduced in conditioned medium from reprogramming cultures in which the PADI4 inhibitor CI-amidine has been added (FIG. 7, middle and lower panels labelled “H3CitR2” and H3CitR8”, lanes labelled “+CI-am”), despite similar levels of total histone H3 being present (FIG. 7, top panel labelled “H3”).
Compound,proportion of OCT4-GFP positive cells (reprogramming cells) at the end of reprogramming (NSO4G neural stem cells),number of colonies (successfully reprogrammed cells) (human fibroblasts),"citrullinated histone H3 (H3CitR2, H3CitR8) detected in conditioned medium [1]"
NC(=O)[C@H](CCCN=C(N)CCl)NC(=O)c1ccccc1 [CI-amidine],The same result is achieved,significantly reduced,reduced
COc1cc(C(=O)N2CC[C@@H](O)[C@@H](N)C2)cc2nc(-c3cc4ccccc4n3CC3CC3)n(C)c12 [GSK484],,significantly reduced,
CCc1ccc(NC(=O)Nc2c[nH]c3ccccc23)cc1 [H-151],significantly reduced,significantly reduced number of colonies,
CCOC(=O)c1ccc(CC(=O)c2ccc(O)c(O)c2O)o1 [MMG-11],significantly reduced,significantly reduced number of colonies,
